In ChEMBL document CHEMBL4616723, “Discovery of Antibacterials That Inhibit Bacterial RNA Polymerase Interactions with Sigma Factors” (J Med Chem, 2020) one finds MIC data, which are given here for 31 compounds.

Converted amounts (≈) assume the structure as drawn.

Common to all, as to assay type: functional
One assay deals with Escherichia coli. Nature of the assay: Antibacterial activity against Escherichia coli ATCC 25922 after 20 hrs by CLSI based-broth microdilution method. Particulars: ATCC 25922, 20 h. A general note: Dilution methods test growth across graded concentrations, often in twofold steps.
The test system of a further assay is Enterobacter cloacae. As to the kind of experiment: Antibacterial activity against Enterobacter cloacae ATCC 13047 after 20 hrs by CLSI based-broth microdilution method. Particulars: subsp. cloacae ATCC 13047, 20 h.
For another assay, the system named is Klebsiella pneumoniae. As to the kind of experiment: Antibacterial activity against Klebsiella pneumoniae ATCC 700603 after 20 hrs by CLSI based-broth microdilution method. Particulars: ATCC 700603, 20 h.
A further assay has as its system Streptococcus pneumoniae. Nature of the assay: Antibacterial activity against Streptococcus pneumoniae ATCC 49619 after 20 hrs by CLSI based-broth microdilution method. Particulars: ATCC 49619, 20 h.
A further assay relates to Acinetobacter baumannii. Nature of the assay: Antibacterial activity against Acinetobacter baumannii ATCC 19606 after 20 hrs by CLSI based-broth microdilution method. The conditions noted are these: ATCC 19606 = CIP 70.34 = JCM 6841, 20 h.
The subject of a further assay is Pseudomonas aeruginosa. As to the kind of experiment: Antibacterial activity against Pseudomonas aeruginosa ATCC 27853 after 20 hrs by CLSI based-broth microdilution method. The conditions noted are these: ATCC 27853, 20 h.

The term MIC denotes the lowest concentration found to suppress growth. As to `O=C(O)c1ccccc1C(=O)c1ccc(Nc2ccc(Cl)c(Cl)c2)c([N+](=O)[O-])c1`, the minimal inhibitory concentration (MIC) in the assay with Escherichia coli is over 256 µg/mL; with Enterobacter cloacae, over 256 µg/mL; against Klebsiella pneumoniae it was over 256 µg/mL; in the assay with Streptococcus pneumoniae it was 64 µg/mL (≈ 148 µM); in the assay with Acinetobacter baumannii it was over 256 µg/mL; against Pseudomonas aeruginosa, over 256 µg/mL.

For `O=C(O)c1ccccc1C(=O)c1ccc(Sc2ccccc2F)c([N+](=O)[O-])c1`, the MIC in the assay on Escherichia coli was over 256 µg/mL; against Enterobacter cloacae it was over 256 µg/mL; against Klebsiella pneumoniae, over 256 µg/mL; against Streptococcus pneumoniae, 128 µg/mL (≈ 322 µM); in the assay with Acinetobacter baumannii, over 256 µg/mL; in the assay with Pseudomonas aeruginosa it was over 256 µg/mL.

In the case of `NC(=O)c1ccccc1NCc1ccc(Sc2ccc(Cl)c(Cl)c2)c([N+](=O)[O-])c1`, the MIC against Escherichia coli, against Enterobacter cloacae, with Klebsiella pneumoniae, in the assay with Streptococcus pneumoniae, against Acinetobacter baumannii and against Pseudomonas aeruginosa was over 256 µg/mL each time.

With `O=C(O)c1ccccc1C(=O)c1ccc(Nc2cccc(CO)c2)c([N+](=O)[O-])c1`, the MIC in the assay with Escherichia coli, in the assay on Enterobacter cloacae, against Klebsiella pneumoniae, in the assay on Streptococcus pneumoniae, against Acinetobacter baumannii and against Pseudomonas aeruginosa was over 256 µg/mL each time.

Take `O=C(O)c1ccccc1C(=O)c1ccc(Nc2cccc3cccnc23)c([N+](=O)[O-])c1`: the MIC against Escherichia coli, with Enterobacter cloacae, against Klebsiella pneumoniae, in the assay with Streptococcus pneumoniae, against Acinetobacter baumannii and in the assay with Pseudomonas aeruginosa was over 256 µg/mL in each case.

Regarding `Nc1ccccc1Sc1ccc(C(=O)Nc2cccc(C(=O)O)c2)cc1[N+](=O)[O-]`, the MIC with Escherichia coli is over 256 µg/mL; in the assay with Enterobacter cloacae, over 256 µg/mL; against Klebsiella pneumoniae, over 256 µg/mL; with Streptococcus pneumoniae, 128 µg/mL (≈ 313 µM); against Acinetobacter baumannii it was over 256 µg/mL; with Pseudomonas aeruginosa, over 256 µg/mL.

For `Cc1cccc([N+](=O)[O-])c1Sc1ccc(C(=O)c2ccccc2C(=O)O)cc1[N+](=O)[O-]`, the MIC is over 256 µg/mL with Escherichia coli; over 256 µg/mL in the assay on Enterobacter cloacae; over 256 µg/mL with Klebsiella pneumoniae; 128 µg/mL (≈ 292 µM) in the assay on Streptococcus pneumoniae; over 256 µg/mL against Acinetobacter baumannii; over 256 µg/mL against Pseudomonas aeruginosa.

`O=C(O)c1ccccc1C(=O)c1ccc(Sc2ccccn2)c([N+](=O)[O-])c1`: the MIC with Escherichia coli, in the assay with Enterobacter cloacae, against Klebsiella pneumoniae, with Streptococcus pneumoniae, against Acinetobacter baumannii and against Pseudomonas aeruginosa was over 256 µg/mL in each case.

`O=C(O)c1ccccc1C(=O)c1ccc(N2CCOCC2)c([N+](=O)[O-])c1`: the minimal inhibitory concentration (MIC) against Escherichia coli, in the assay with Enterobacter cloacae, with Klebsiella pneumoniae, against Streptococcus pneumoniae, with Acinetobacter baumannii and against Pseudomonas aeruginosa was over 256 µg/mL throughout.

With `Nc1ccccc1Sc1ccc(CNc2ccc(C(=O)O)cc2)cc1[N+](=O)[O-]`, the MIC was over 256 µg/mL with Escherichia coli; over 256 µg/mL in the assay on Enterobacter cloacae; over 256 µg/mL against Klebsiella pneumoniae; 256 µg/mL (≈ 647 µM) against Streptococcus pneumoniae; over 256 µg/mL with Acinetobacter baumannii; over 256 µg/mL in the assay with Pseudomonas aeruginosa.

Take `O=C(O)c1ccccc1C(=O)c1ccc(N2CCCCC2)c([N+](=O)[O-])c1`: the MIC with Escherichia coli is over 256 µg/mL; in the assay on Enterobacter cloacae, over 256 µg/mL; with Klebsiella pneumoniae, over 256 µg/mL; in the assay with Streptococcus pneumoniae it was 256 µg/mL (≈ 722 µM); against Acinetobacter baumannii, over 256 µg/mL; in the assay with Pseudomonas aeruginosa it was over 256 µg/mL.

In the case of `CC(C)(C)c1cccc(Nc2ccc(C(=O)c3ccccc3C(=O)O)cc2[N+](=O)[O-])c1`, the MIC with Escherichia coli was over 256 µg/mL; against Enterobacter cloacae, over 256 µg/mL; against Klebsiella pneumoniae, over 256 µg/mL; against Streptococcus pneumoniae, 256 µg/mL (≈ 612 µM); with Acinetobacter baumannii, over 256 µg/mL; in the assay on Pseudomonas aeruginosa it was over 256 µg/mL.

For the compound `NC(=O)c1cccc(NCc2ccc(Sc3ccc(Cl)c(Cl)c3)c([N+](=O)[O-])c2)c1`, the MIC with Escherichia coli, against Enterobacter cloacae, in the assay on Klebsiella pneumoniae, against Streptococcus pneumoniae, in the assay on Acinetobacter baumannii and in the assay with Pseudomonas aeruginosa was over 256 µg/mL in each case.

As for `Nc1ccccc1Sc1ccc(CNc2ccccc2C(=O)O)cc1[N+](=O)[O-]`, the minimal inhibitory concentration (MIC) was over 256 µg/mL in the assay on Escherichia coli; over 256 µg/mL against Enterobacter cloacae; over 256 µg/mL with Klebsiella pneumoniae; 64 µg/mL (≈ 162 µM) with Streptococcus pneumoniae; over 256 µg/mL in the assay with Acinetobacter baumannii; over 256 µg/mL in the assay on Pseudomonas aeruginosa.

Turning to `Cc1occc1Sc1ccc(C(=O)c2ccccc2C(=O)O)cc1[N+](=O)[O-]`, the MIC against Escherichia coli was over 256 µg/mL; in the assay on Enterobacter cloacae, over 256 µg/mL; against Klebsiella pneumoniae, over 256 µg/mL; against Streptococcus pneumoniae it was 256 µg/mL (≈ 668 µM); with Acinetobacter baumannii it was over 256 µg/mL; in the assay with Pseudomonas aeruginosa, over 256 µg/mL.

On to `O=[N+]([O-])c1cc(CNc2cccc(CO)c2)ccc1Sc1ccc(Cl)c(Cl)c1`, for which the minimal inhibitory concentration (MIC) in the assay on Escherichia coli, against Enterobacter cloacae, with Klebsiella pneumoniae, with Streptococcus pneumoniae, in the assay with Acinetobacter baumannii and with Pseudomonas aeruginosa was over 256 µg/mL each time.

As to `Cc1ccc(Sc2ccc(C(=O)c3ccccc3C(=O)O)cc2[N+](=O)[O-])c(C)c1`, the MIC is over 256 µg/mL in the assay with Escherichia coli; over 256 µg/mL in the assay on Enterobacter cloacae; over 256 µg/mL in the assay on Klebsiella pneumoniae; 32 µg/mL (≈ 78.5 µM) against Streptococcus pneumoniae; over 256 µg/mL against Acinetobacter baumannii; over 256 µg/mL with Pseudomonas aeruginosa.

With `CC(C)Nc1cccc(Sc2ccc(C(=O)c3ccccc3C(=O)O)cc2[N+](=O)[O-])c1`, the MIC was over 256 µg/mL in the assay with Escherichia coli; over 256 µg/mL in the assay with Enterobacter cloacae; over 256 µg/mL with Klebsiella pneumoniae; 32 µg/mL (≈ 73.3 µM) in the assay on Streptococcus pneumoniae; over 256 µg/mL in the assay with Acinetobacter baumannii; over 256 µg/mL in the assay on Pseudomonas aeruginosa.

Consider `NS(=O)(=O)c1cccc(NCc2ccc(Sc3ccc(Cl)c(Cl)c3)c([N+](=O)[O-])c2)c1`, for which the MIC with Escherichia coli was over 256 µg/mL; against Enterobacter cloacae, over 256 µg/mL; with Klebsiella pneumoniae, over 256 µg/mL; against Streptococcus pneumoniae, 64 µg/mL (≈ 132 µM); with Acinetobacter baumannii, over 256 µg/mL; with Pseudomonas aeruginosa, over 256 µg/mL.

On to `CC(=O)Nc1cccc(Sc2ccc(C(=O)c3ccccc3C(=O)O)cc2[N+](=O)[O-])c1`, for which the MIC against Escherichia coli was over 256 µg/mL; against Enterobacter cloacae, over 256 µg/mL; in the assay with Klebsiella pneumoniae, over 256 µg/mL; in the assay with Streptococcus pneumoniae, 256 µg/mL (≈ 587 µM); against Acinetobacter baumannii it was over 256 µg/mL; in the assay on Pseudomonas aeruginosa, over 256 µg/mL.

With `Cc1ccc(C(=O)O)cc1NCc1ccc(Sc2ccc(Cl)c(Cl)c2)c([N+](=O)[O-])c1`, the minimum inhibitory concentration (MIC) is over 256 µg/mL with Escherichia coli; over 256 µg/mL with Enterobacter cloacae; over 256 µg/mL against Klebsiella pneumoniae; 16 µg/mL (≈ 34.5 µM) against Streptococcus pneumoniae; over 256 µg/mL with Acinetobacter baumannii; over 256 µg/mL against Pseudomonas aeruginosa.

In the case of `O=C(O)c1ccccc1C(=O)c1ccc(NCc2ccccc2F)c([N+](=O)[O-])c1`, the MIC in the assay with Escherichia coli is over 256 µg/mL; in the assay with Enterobacter cloacae it was over 256 µg/mL; against Klebsiella pneumoniae it was over 256 µg/mL; against Streptococcus pneumoniae it was 256 µg/mL (≈ 649 µM); against Acinetobacter baumannii, over 256 µg/mL; in the assay on Pseudomonas aeruginosa it was over 256 µg/mL.

Regarding `O=C(Nc1cccc(Sc2ccc(C(=O)c3ccccc3C(=O)O)cc2[N+](=O)[O-])c1)c1ccccc1`, the MIC is over 256 µg/mL in the assay with Escherichia coli; over 256 µg/mL in the assay with Enterobacter cloacae; over 256 µg/mL in the assay on Klebsiella pneumoniae; 32 µg/mL (≈ 64.2 µM) in the assay with Streptococcus pneumoniae; over 256 µg/mL against Acinetobacter baumannii; over 256 µg/mL against Pseudomonas aeruginosa.

In the case of `O=C(O)c1ccccc1C(=O)c1ccc(Sc2ccc(Cl)cc2Cl)c([N+](=O)[O-])c1`, the MIC is over 256 µg/mL in the assay on Escherichia coli; over 256 µg/mL against Enterobacter cloacae; over 256 µg/mL with Klebsiella pneumoniae; 32 µg/mL (≈ 71.4 µM) against Streptococcus pneumoniae; over 256 µg/mL with Acinetobacter baumannii; over 256 µg/mL with Pseudomonas aeruginosa.

For `NC(=O)c1cccc(Nc2ccc(C(=O)c3ccccc3C(=O)O)cc2[N+](=O)[O-])c1`, the MIC with Escherichia coli, against Enterobacter cloacae, against Klebsiella pneumoniae, with Streptococcus pneumoniae, with Acinetobacter baumannii and in the assay with Pseudomonas aeruginosa was over 256 µg/mL in each case.

For the compound `Nc1ccccc1Sc1ccc(CNc2cccc(C(=O)O)c2)cc1[N+](=O)[O-]`, the MIC is over 256 µg/mL with Escherichia coli; over 256 µg/mL against Enterobacter cloacae; over 256 µg/mL in the assay on Klebsiella pneumoniae; 64 µg/mL (≈ 162 µM) against Streptococcus pneumoniae; over 256 µg/mL against Acinetobacter baumannii; over 256 µg/mL against Pseudomonas aeruginosa.

`O=C(Nc1ccccc1C(=O)O)c1ccc(Sc2ccc(Cl)c(Cl)c2)c([N+](=O)[O-])c1`: the MIC in the assay on Escherichia coli, in the assay on Enterobacter cloacae, against Klebsiella pneumoniae, with Streptococcus pneumoniae, in the assay with Acinetobacter baumannii and against Pseudomonas aeruginosa was over 256 µg/mL in each case.

Take `O=C(O)c1ccccc1C(=O)c1ccc(Nc2nccs2)c([N+](=O)[O-])c1`: the MIC against Escherichia coli, against Enterobacter cloacae, against Klebsiella pneumoniae, against Streptococcus pneumoniae, in the assay on Acinetobacter baumannii and in the assay with Pseudomonas aeruginosa was over 256 µg/mL throughout.

In the case of `Cc1cccc(Nc2ccc(C(=O)c3ccccc3C(=O)O)cc2[N+](=O)[O-])c1`, the MIC was over 256 µg/mL against Escherichia coli; over 256 µg/mL against Enterobacter cloacae; over 256 µg/mL in the assay on Klebsiella pneumoniae; 128 µg/mL (≈ 340 µM) in the assay with Streptococcus pneumoniae; over 256 µg/mL in the assay with Acinetobacter baumannii; over 256 µg/mL with Pseudomonas aeruginosa.

With `Nc1ccccc1Nc1ccc(C(=O)c2ccccc2C(=O)O)cc1[N+](=O)[O-]`, the MIC against Escherichia coli, against Enterobacter cloacae, against Klebsiella pneumoniae, against Streptococcus pneumoniae, against Acinetobacter baumannii and with Pseudomonas aeruginosa was over 256 µg/mL each time.

On to `O=C(O)c1ccccc1C(=O)c1ccc(NCc2ccccc2)c([N+](=O)[O-])c1`, for which the MIC against Escherichia coli is over 256 µg/mL; against Enterobacter cloacae, over 256 µg/mL; in the assay on Klebsiella pneumoniae, over 256 µg/mL; in the assay on Streptococcus pneumoniae, 256 µg/mL (≈ 680 µM); with Acinetobacter baumannii, over 256 µg/mL; against Pseudomonas aeruginosa, over 256 µg/mL.
